Legend:
[1] = tested on: alveolar epithelial A549 cells; assay: Cell morphological changes, EMT induced by TGF-β1; assay type: cell-based; settings: changed by TGF-β1 treatment, BCT 10 μM, BCC 0.5 μM, 48 hours, FIG. 6
Description: A549 cells were seeded on a 60 mm plate at 1×10^5 /mL and cultured for 24 hours. Then, 5 mL of a medium containing TGF-β1, TGF-β1 and sample BCT (10 μM) and/or TGF-β1 and sample BCC (0.5 μM) was added to each well and incubated for another 48 hours. After culturing, the cells were checked under a microscope, and images were taken.

[2] = tested on: lung fibrosis; assay: Histopathological examination in bleomycin pulmonary fibrosis animal model; assay type: in vivo, mice; settings: BLM 3 mg/kg into airways, samples administered daily; for size of the fibrosis area according to the tissue scoring system (Ashcroft score): Masson's trichrome, graph at bottom of FIG. 8; for size of the increased fibrosis area (H&E staining): lung on day 29, FIG. 8
Description: The airways of the mice were incised, and bleomycin (3 mg/kg, BLM) was injected into the airways. After injection, the incision site was sutured with nylon thread, samples of BCT and/or BCC were administered daily 24 hours after bleomycin was injected. Mice were raised to 28 days from the start date of the experiment and sacrificed on day 29 to separate the broncho-alveolar lavage fluid (BALF) and lung tissue and used in further experiments. In order to evaluate lung fibrosis, animal models of each control group and experimental group were sacrificed, and the lungs were extracted from these animal models, fixed in 10% neutral buffered formalin (NBF), and then embedded with paraffin to produce tissue sections with a thickness of 2-4 um. After the sections were prepared, Hematoxylin-Eosin staining and Masson's trichrome staining were performed for comparison of histological findings and observed with an optical microscope. H&E staining was performed to evaluate inflammation and epithelial cell hypertrophy due to lung fibrosis, and Masson's trichrome staining was used to evaluate fibrosis using the following tissue scoring method (Scoring system, Ashcroft score). [table]

[3] = tested on: alveolar epithelial A549 cells; assay: Cell penetration inhibition (Matrigel trans-well), EMT induced by TGF-β1; assay type: cell-based; settings: TGF-β1-treated A549; BCT 10 μM, BCC 0.5 μM; 24 hours; FIG. 3
Description: As EMT progresses, the proliferation and movement of epithelial cells increases, cell penetration increases, and cell morphology changes, thereby confirming EMT inhibitory efficacy and evaluating the degree of expression of mechanism-related factors.
Trans-well inserts (Corning, USA) were coated with Matrigel® (Corning) at 2 mg/L. Dilute A549 cells to about 5×10^5/mL in 200 μl of serum-free media, and TGF-β1, TGF-β1 and sample BCT (10 μM) or TGF-β1 and sample BCC (0.5 μM) was added and dispensed into trans-well inserts. The cells were cultured for 24 hours by dispensing a medium containing 10% serum in the receive chambers. After the culture was completed, the cells remaining in the insert were removed, and the cells penetrating the receiving chamber were stained with crystal violet and photographed under a microscope.

[4] = tested on: alveolar epithelial A549 cells; assay: Cell migration inhibition (scratch), EMT induced by TGF-β1; assay type: cell-based; settings: TGF-β1-treated A549; BCT 10 μM, BCC 0.5 μM; 72 hours; FIG. 2
Description: As EMT progresses, the proliferation and movement of epithelial cells increases, cell penetration increases, and cell morphology changes, thereby confirming EMT inhibitory efficacy and evaluating the degree of expression of mechanism-related factors. A549 cells were seeded at 1×10^5 cells in 1 mL per well in a 6-well plate and cultured at 37° C. under 5% CO 2 for 24 hours. After 24 hours, a single cell layer was scratched with a 1 mL tip and a medium containing TGF-β1, TGF-β1, and sample BCT (10 μM) or TGF-β1, and sample BCC (0.5 μM) was added to each well. After culturing for 72 hours, the degree of cell migration was confirmed under a microscope, and images were taken.

[5] = tested on: EMT mechanism-related factors in A549 cells; assay: Western blot of EMT mechanism-related factors; assay type: cell-based; settings: BCT 10 μM, BCC 0.5 μM; for expression of E-cadherin: decreased by TGF-β1 treatment; for expression of E-cadherin / expression of Cyr61 / expression of Fibronectin / expression of Integrin β3 / expression of SMA2/3 / expression of Vimentin / expression of α-Sma: FIG. 4; for expression of Cyr61 / expression of Fibronectin / expression of Integrin β3 / expression of SMA2/3 / expression of Vimentin / expression of α-Sma / expression of pAKT / expression of pERK: increased by TGF-β1 treatment; for expression of pAKT / expression of pERK: FIG. 5
Description: 2×10^6 A549 cells were attached to a 100 mm culture vessel for 24 hours, treated with TGF-β1, TGF-β1 and sample BCT (10 μM) and/or TGF-β1 and sample BCC (0.5 μM)) and cultured. After collecting all of the cultured cells, the cell precipitate was dissolved in a cell lysate RIPA lysis buffer (LPS solution, Korea, Seoul), followed by centrifugation at 13,000 rpm for 20 minutes to obtain a supernatant. The total amount of protein was quantified using the BCA Protein assay kit (Thermo. Scientific, Wilmington, DE, USA) solution. After mixing the protein and 6× sample buffer (1 mL of glycerol, 0.5 mL of β- Mercaptoethanol, 3 mL of 10% SDS, 1.25 mL of 1 M Tris-HCl, 1-2 μg of bromophenol blue), electrophoresis was performed on SDS polyacrylamide gel. After transferring to Nitrocellulose Membrane (Millipore, Billerica, MA, USA) and blocking with 5% non-fat skim milk, protein expression levels of related factors were measured using various antibodies, and whether the protein amount was the same was confirmed using actin. Each of the primary antibodies was diluted and reacted at room temperature for 4 hours, washed 3 times with TBST, the secondary antibody was diluted at 1:5,000 and reacted at room temperature for 30 minutes. After washing with TBST, a band was obtained after light emission with ECL solution (LPS solution, Korea, Seoul). The results are shown in FIG. 4 for the Smad-dependent factor and FIG. 5 for the Smad-independent factor.

[6] = tested on: major markers of pulmonary fibrosis in lung tissue; assay: Western blot of protein expression level using lung tissue, pulmonary fibrosis animal model; assay type: in vivo, mice; settings: compared to BLM-induced group; FIG. 9
Description: (§1) The airways of the mice were incised, and bleomycin (3 mg/kg, BLM) was injected into the airways. After injection, the incision site was sutured with nylon thread, samples of BCT and/or BCC were administered daily 24 hours after bleomycin was injected. Mice were raised to 28 days from the start date of the experiment and sacrificed on day 29 to separate the broncho-alveolar lavage fluid (BALF) and lung tissue and used in further experiments.
Animal models of each control group and the experimental group raised for 28 days were sacrificed, and lung tissue samples and serum samples were obtained from these animal models, respectively, and stored in a deep freezer at −70° C. Western blotting was performed for α-Sma, TGF-β1, Fibronectin, and E-cadherin proteins known as major markers of pulmonary fibrosis.
Lung tissue was put into T-PER buffer (lysis buffer, Thermo. Scientific, Wilmington, DE, USA) as a standard of 500 μL per 50 mg of tissue, and the tissue was homogenized using a homogenizer. The homogenized tissue was centrifuged at 13,000 rpm, and the supernatant was used as a sample for Western blot. The concentration of the tissue homogenate was quantified using a BCA Protein assay kit (Thermo. Scientific, Wilmington, DE, USA) solution. After mixing the protein and 6× sample buffer (1 mL of glycerol, 0.5 mL of β-Mercaptoethanol, 3 mL of 10% SDS, 1.25 mL of 1 M Tris-HCl, 1-2 μg of bromophenol blue), electrophoresis was performed on SDS polyacrylamide gel. After transferring to Nitrocellulose Membrane (Millipore, Billerica, MA, USA) and blocking with 5% non-fat skim milk, protein expression levels of related factors were measured using various antibodies, and whether the protein amount was the same was confirmed using actin. Each of the primary antibodies was diluted and reacted at room temperature for 4 hours, washed 3 times with TBST, the secondary antibody was diluted at 1:5,000 and reacted at room temperature for 30 minutes. After washing with TBST, a band was obtained after light emission with ECL solution (LPS solution, Korea, Seoul).

[7] = tested on: cells in BALF; assay: Change in cell number in bronchoalveolar lavage fluid (BALF), pulmonary fibrosis animal model; assay type: in vivo, mice; settings: increased in BLM-administered group; FIG. 10
Description: as §1
Pulmonary fibrosis is characterized by an increase in the total number of cells and the percentage of neutrophils in the BALF fluid.
After collecting BALF from each experimental animal group, neutrophils and alveolar macrophages, including total cells, were measured. The method of measuring the total number of cells in BALF, the ratio of neutrophils and alveolar macrophages, etc., is as follows. BALF was mixed with trypan blue in a ratio of 1:1, and then the total number of cells was counted as ×104/BALF 1 mL using a hemocytometer (Fisher Scientific, PA, USA). The prepared BALF was spread on a slide glass and then stained with Diff Quik (manufactured by Sysmex Corporation, USA), the number of neutrophils and alveolar macrophages among a total of 200 cells was counted under a microscope, and the ratio was measured and recorded.

[8] = tested on: human fibroblasts (HDF, Human Dermal Fibroblast); assay: MTT cytotoxicity assessment; assay type: cell-based; settings: 24 hours and 48 hours, FIG. 1
Description: (§2) Using the MTT (3-(4,5-dimethylthiazol-2yl)-2,5-diphenyl-2H-tetrazolium bromide) assay was applied to investigate the effect of TMF (BCT) and catechol (BCC) on cell proliferation. 5×10^3 cells/well were placed in a 96-well plate and incubated for 24 hours at 37° C., 5% CO2 incubator. Then, each sample was treated in each well according to the concentration and then incubated for 24 hours. Then, after washing with PBS, 20 μL of MTT dissolved in PBS and 200 μL of FBS-free DMEM were treated in each well and then incubated for 4 hours under the same conditions after blocking the light. After 4 hours, the culture solution was removed, treated with 200 μL of DMSO (dimethyl sulfoxide), and left at 37° C. for 2 hours, and absorbance was measured at 570 nm using a microplate reader.
(§3) The cell viability after 24 hours and 48 hours is shown in FIG. 1 as a percentage compared to the control group, the untreated sample group.

[9] = tested on: muscle cells (C2C12); assay: MTT cytotoxicity assessment; assay type: cell-based; settings: 24 hours and 48 hours, FIG. 1
Description: as §2, §3

[10] = tested on: human lung fetal cells (MRC-5); assay: MTT cytotoxicity assessment; assay type: cell-based; settings: 24 hours and 48 hours, FIG. 1
Description: as §2, §3

Structure (SMILES)	cell morphology [1]	size of the fibrosis area according to the tissue scoring system (Ashcroft score) [2]	size of the increased fibrosis area (H&E staining) [2]	number of cells penetrating into the receiving chamber [3]	cell migration [4]	expression of E-cadherin [5]	expression of Cyr61 [5]	expression of Fibronectin [5]	expression of Integrin β3 [5]	expression of SMA2/3 [5]	expression of Vimentin [5]	expression of α-Sma [5]	expression of pAKT [5]	expression of pERK [5]	E-cadherin expression in lung tissue [6]	expression level of TGF-β1 in lung tissue [6]	expression level of fibronectin in lung tissue [6]	expression level of α-SMA in lung tissue [6]	number of lymphocytes in BALF [7]	number of neutrophils in BALF [7]	further results
Oc1ccccc1O [BCC, 1,2-dihydroxybenzene]	recovered similarly to the control	reduced	reduced	decreased	decreased	increased	decreased	decreased	decreased	decreased	decreased	decreased	decreased	decreased	increased	decreased	decreased	decreased	significantly decreased	significantly decreased	total number of cells in BALF [7]: significantly decreased; cytotoxicity (cell viability) [8]: did not show any particular cytotoxicity; cytotoxicity (cell viability) [9]: did not show any particular cytotoxicity; cytotoxicity (cell viability) [10]: did not show any particular cytotoxicity
COc1ccc(-c2coc3cc(OC)c(OC)cc3c2=O)cc1 [BCT, 4′,6,7-trimethoxyisoflavone]	recovered similarly to the control	reduced	reduced	decreased	decreased	increased	decreased	decreased	decreased	decreased	decreased	decreased	decreased	decreased	increased	decreased	decreased	decreased	significantly decreased	significantly decreased	total number of cells in BALF [7]: significantly decreased; cytotoxicity (cell viability) [8]: did not show any particular cytotoxicity; cytotoxicity (cell viability) [9]: did not show any particular cytotoxicity; cytotoxicity (cell viability) [10]: did not show any particular cytotoxicity

From patent publication US12263154B2, “Composition using 4′,6,7-trimethoxyisoflavone and catechol for managing pulmonary fibrosis” (A-CHEMBIO CO., LTD, priority 2020, dated 2025)
